Results published in ChEMBL document CHEMBL3751763, “Polyketide butenolide, diphenyl ether, and benzophenone derivatives from the fungus Aspergillus flavipes PJ03-11” (Bioorg Med Chem Lett, 2016).

experiment: Inhibition of Saccharomyces cerevisiae alpha-Glucosidase using p-nitrophenyl-alpha-D-glucopyranoside as substrate assessed as formation of para-nitrophenol preincubated for 5 mins followed by addition of substrate measured after 15 mins by microplate reader analysis

IC50 [nM] | SMILES
> 2000 | COC(=O)c1cc(O)cc(O)c1C(=O)c1c(O)c(Cl)c(C)c(Cl)c1O
385 | COC(=O)[C@]1(Cc2ccccc2)OC(=O)C(O)=C1c1ccccc1
199 | COC(=O)c1cc(O)cc(O)c1C(=O)c1c(O)cc(C)cc1O
> 2000 | COC(=O)c1cc(O)cc(OC)c1Oc1cc(CO)cc(O)c1C(=O)O
1450 | COC(=O)c1cc(O)cc(OC)c1Oc1c(Cl)c(C)c(Cl)c(O)c1C(=O)OC [METYL DICHLOROASTERRATE]
79 | COc1cc(/C=C2\OC(=O)C(c3ccc(O)cc3)=C2O)cc(OC)c1O
> 2000 | COC(=O)c1cc(O)cc(OC)c1Oc1cc(C)c(Cl)c(O)c1C(=O)OC [METHYL CHLOROASTERRATE]
42 | COc1cc(O)cc(C(=O)O)c1C(=O)c1c(O)c(Cl)c(C)c(Cl)c1O
16 | COC(=O)[C@]1(Cc2ccc(O)c(CC=C(C)C)c2)OC(=O)C(OC)=C1c1ccc(O)c(O)c1
126 | COC(=O)[C@]1(Cc2ccc(O)cc2)OC(=O)C(O)=C1c1ccc(O)cc1
> 2000 | COc1cc(O)cc(C(=O)O)c1Oc1cc(C)cc(O)c1C(=O)O
> 2000 | COC(=O)c1cc(O)cc(OC)c1Oc1cc(C)c(Cl)c(O)c1C(=O)O
2700 | O=C1O/C(=C\c2ccc(O)cc2)C(O)=C1c1ccc(O)cc1 [ASPULVINONE E]
91 | COC(=O)c1cc(O)cc(OC)c1Oc1c(Cl)c(C)c(Cl)c(O)c1C(=O)O [GEODIN HYDRATE]
685 | C[C@@H]1O[C@@H](O[C@@H]2[C@@H](O)[C@H](O)[C@H](O[C@H]3[C@H](O)[C@@H](O)C(O)O[C@@H]3CO)O[C@H]2CO)[C@@H](O)[C@H](O)[C@H]1N[C@H]1C=C(CO)[C@@H](O)[C@H](O)[C@H]1O (some centres undefined)
> 2000 | COC(=O)c1cc(O)cc(OC)c1Oc1cc(C)cc(O)c1C(=O)O [ASTERRIC ACID]
22 | COc1cc(/C=C2\OC(=O)C(c3ccc(O)cc3)=C2O)ccc1O
1480 | COC(=O)c1c(O)c(Cl)c(C)c(Cl)c1Oc1c(OC)cc(O)cc1C(=O)O

SMILES | IC50 [nM]
O=c1c(O)c(-c2ccc(O)c(O)c2)oc2cc(O)cc(O)c12 [QUERCETIN] | 15
